Experimental data taken from the supplement of paper PMC10307832.

Tests used:
Experiment in all cases: relative viability (nuclei count vs DMSO), 5 days (fraction); higher = more cells survive
[1] = test system: PC-14
Summary of the method: (§1)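 Lung cancer cell lines in 1536-well plates got either a single drug or a fixed anchor-drug dose together with five library-drug doses (not always all listed) in √10 steps, by pin tool, on the day after seeding. Nuclei were counted after 5 days, and relative viability is the treated-to-vehicle ratio of nuclei counts. Values are medians of duplicate plates.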

[2] = test system: NCI-H1993
Summary of the method: as §1

[3] = test system: NCI-H647
Summary of the method: as §1

[4] = test system: LOU-NH91
Summary of the method: as §1

[5] = test system: NCI-H1650
Summary of the method: as §1

[6] = test system: COR-L23
Summary of the method: as §1

[7] = test system: NCI-H2085
Summary of the method: as §1

[8] = test system: NCI-H441
Summary of the method: as §1

[9] = test system: NCI-H520
Summary of the method: as §1

[10] = test system: HCC-44
Summary of the method: as §1

[11] = test system: ABC-1
Summary of the method: as §1

[12] = test system: NCI-H2347
Summary of the method: as §1

[13] = test system: RERF-LC-KJ
Summary of the method: as §1

[14] = test system: NCI-H2405
Summary of the method: as §1

[15] = test system: NCI-H1563
Summary of the method: as §1

[16] = test system: EKVX
Summary of the method: as §1

[17] = test system: NCI-H3122
Summary of the method: as §1

[18] = test system: NCI-H1734
Summary of the method: as §1

[19] = test system: 201T
Summary of the method: as §1

[20] = test system: NCI-H2023
Summary of the method: as §1

[21] = test system: EPLC-272H
Summary of the method: as §1

Molecule `C[C@@H]1CN(CC(=O)Nc2ccc3c(c2)Cc2cccc(-c4cc(=O)cc(N5CCOCC5)o4)c2S3)C[C@H](C)O1` + CC(C)C[C@H](NC(=O)[C@H](Cc1ccccc1)NC(=O)c1cnccn1)B(O)O [Bortezomib] (partner 0.002 µM) has a relative viability ([1]; first compound 0.04 µM) of 0.993, a relative viability ([1]; first compound 0.1265 µM) of 0.859 and a relative viability ([1]; first compound 0.4 µM) of 0.798. For the same molecule, the relative viability ([1]; first compound 4 µM) was 0.664, the relative viability ([2]; first compound 0.04 µM) was 1.12 and the relative viability ([2]; first compound 0.1265 µM) was 1.08. For the same molecule, the relative viability ([2]; first compound 0.4 µM) was 0.763, the relative viability ([2]; first compound 4 µM) was 1.01 and the relative viability ([3]; first compound 0.04 µM) was 1. For the same molecule, the relative viability ([3]; first compound 0.1265 µM) was 1.02, the relative viability ([3]; first compound 0.4 µM) was 0.985 and the relative viability ([3]; first compound 4 µM) was 0.484. For the same molecule, the relative viability ([4]; first compound 0.04 µM) was 0.495, the relative viability ([4]; first compound 0.1265 µM) was 0.446 and the relative viability ([4]; first compound 0.4 µM) was 0.428. For the same molecule, the relative viability ([4]; first compound 4 µM) was 0.527, the relative viability ([5]; first compound 0.04 µM) was 0.221 and the relative viability ([5]; first compound 0.1265 µM) was 0.23. It also gave a relative viability ([5]; first compound 0.4 µM) of 0.192, a relative viability ([5]; first compound 4 µM) of 0.183 and a relative viability ([6]; first compound 0.04 µM) of 0.975. It also gave a relative viability ([6]; first compound 0.1265 µM) of 0.996, a relative viability ([6]; first compound 0.4 µM) of 0.984 and a relative viability ([6]; first compound 4 µM) of 0.795. For the same molecule, the relative viability ([7]; first compound 0.04 µM) was 0.999, the relative viability ([7]; first compound 0.1265 µM) was 1.04 and the relative viability ([7]; first compound 0.4 µM) was 0.975. The relative viability ([7]; first compound 4 µM) was 0.805, the relative viability ([8]; first compound 0.04 µM) was 0.6 and the relative viability ([8]; first compound 0.4 µM) was 0.445. It also gave a relative viability ([8]; first compound 4 µM) of 0.489, a relative viability ([9]; first compound 0.04 µM) of 0.906 and a relative viability ([9]; first compound 0.1265 µM) of 0.671. The relative viability ([9]; first compound 0.4 µM) was 0.247, the relative viability ([9]; first compound 4 µM) was 0.584 and the relative viability ([10]; first compound 0.04 µM) was 0.952. For the same molecule, the relative viability ([10]; first compound 0.1265 µM) was 0.938, the relative viability ([10]; first compound 0.4 µM) was 0.982 and the relative viability ([10]; first compound 4 µM) was 0.796. The relative viability ([11]; first compound 0.1265 µM) was 0.3, the relative viability ([11]; first compound 0.4 µM) was 0.304 and the relative viability ([11]; first compound 4 µM) was 0.265. It also gave a relative viability ([12]; first compound 0.04 µM) of 0.923, a relative viability ([12]; first compound 0.1265 µM) of 1.03 and a relative viability ([12]; first compound 0.4 µM) of 1.2. The relative viability ([12]; first compound 4 µM) was 0.958, the relative viability ([13]; first compound 0.04 µM) was 1.24 and the relative viability ([13]; first compound 0.1265 µM) was 1.17. For the same molecule, the relative viability ([13]; first compound 0.4 µM) was 1.07, the relative viability ([13]; first compound 4 µM) was 0.998 and the relative viability ([14]; first compound 0.04 µM) was 0.984. For the same molecule, the relative viability ([14]; first compound 0.1265 µM) was 0.995, the relative viability ([14]; first compound 0.4 µM) was 0.978 and the relative viability ([14]; first compound 4 µM) was 0.994. For the same molecule, the relative viability ([15]; first compound 0.04 µM) was 0.89, the relative viability ([15]; first compound 0.1265 µM) was 1.01 and the relative viability ([15]; first compound 0.4 µM) was 0.828. For the same molecule, the relative viability ([15]; first compound 4 µM) was 0.797, the relative viability ([16]; first compound 0.04 µM) was 1.19 and the relative viability ([16]; first compound 0.1265 µM) was 1.02. It also gave a relative viability ([16]; first compound 0.4 µM) of 0.945, a relative viability ([16]; first compound 4 µM) of 0.705 and a relative viability ([17]; first compound 0.04 µM) of 1.06. It also gave a relative viability ([17]; first compound 0.1265 µM) of 0.977, a relative viability ([17]; first compound 0.4 µM) of 1.02 and a relative viability ([17]; first compound 4 µM) of 0.969. The relative viability ([18]; first compound 0.04 µM) was 1.07, the relative viability ([18]; first compound 0.1265 µM) was 1.04 and the relative viability ([18]; first compound 0.4 µM) was 0.927. For the same molecule, the relative viability ([18]; first compound 4 µM) was 1.1, the relative viability ([19]; first compound 0.04 µM) was 1.12 and the relative viability ([19]; first compound 0.1265 µM) was 1.04. For the same molecule, the relative viability ([19]; first compound 0.4 µM) was 1.16, the relative viability ([19]; first compound 4 µM) was 1.09 and the relative viability ([20]; first compound 0.04 µM) was 1.06. The relative viability ([20]; first compound 0.1265 µM) was 0.969, the relative viability ([20]; first compound 0.4 µM) was 0.783 and the relative viability ([20]; first compound 4 µM) was 0.876. For the same molecule, the relative viability ([21]; first compound 0.04 µM) was 0.925, the relative viability ([21]; first compound 0.1265 µM) was 0.894 and the relative viability ([21]; first compound 0.4 µM) was 1.03. It also gave a relative viability ([21]; first compound 4 µM) of 0.993.
`CC(C)Oc1cc(Nc2nc(N[C@@H](C)c3ccc(F)cn3)ncc2Cl)n[nH]1` [AZ23] + CC(C)C[C@H](NC(=O)[C@H](Cc1ccccc1)NC(=O)c1cnccn1)B(O)O [Bortezomib] (partner 0.002 µM) was tested, and the relative viability ([1]; first compound 0.01 µM) was 0.774, the relative viability ([1]; first compound 0.03162 µM) was 1.04 and the relative viability ([1]; first compound 0.3162 µM) was 0.917. For the same molecule, the relative viability ([2]; first compound 0.01 µM) was 0.911, the relative viability ([2]; first compound 0.3162 µM) was 1.16 and the relative viability ([3]; first compound 0.01 µM) was 1.41. For the same molecule, the relative viability ([3]; first compound 0.03162 µM) was 1.16, the relative viability ([3]; first compound 0.3162 µM) was 1.12 and the relative viability ([4]; first compound 0.01 µM) was 0.535. It also gave a relative viability ([4]; first compound 0.03162 µM) of 0.546, a relative viability ([4]; first compound 0.3162 µM) of 0.519 and a relative viability ([5]; first compound 0.01 µM) of 0.189. The relative viability ([5]; first compound 0.03162 µM) was 0.242, the relative viability ([5]; first compound 0.3162 µM) was 0.187 and the relative viability ([6]; first compound 0.01 µM) was 0.921. The relative viability ([6]; first compound 0.03162 µM) was 1.27, the relative viability ([6]; first compound 0.3162 µM) was 1.04 and the relative viability ([7]; first compound 0.01 µM) was 0.991. For the same molecule, the relative viability ([7]; first compound 0.03162 µM) was 1.03, the relative viability ([7]; first compound 0.3162 µM) was 1.01 and the relative viability ([8]; first compound 0.01 µM) was 0.833. The relative viability ([8]; first compound 0.03162 µM) was 1.05, the relative viability ([8]; first compound 0.3162 µM) was 0.678 and the relative viability ([9]; first compound 0.01 µM) was 0.434. The relative viability ([9]; first compound 0.03162 µM) was 0.591, the relative viability ([9]; first compound 0.3162 µM) was 0.495 and the relative viability ([10]; first compound 0.01 µM) was 0.88. It also gave a relative viability ([10]; first compound 0.03162 µM) of 1.07, a relative viability ([10]; first compound 0.3162 µM) of 0.912 and a relative viability ([11]; first compound 0.01 µM) of 0.29. The relative viability ([11]; first compound 0.03162 µM) was 0.269, the relative viability ([11]; first compound 0.3162 µM) was 0.255 and the relative viability ([12]; first compound 0.01 µM) was 0.927. For the same molecule, the relative viability ([12]; first compound 0.03162 µM) was 1.04, the relative viability ([12]; first compound 0.3162 µM) was 0.979 and the relative viability ([13]; first compound 0.01 µM) was 1.23. The relative viability ([13]; first compound 0.03162 µM) was 1.31, the relative viability ([13]; first compound 0.3162 µM) was 1.17 and the relative viability ([14]; first compound 0.01 µM) was 0.963. The relative viability ([14]; first compound 0.03162 µM) was 1.02, the relative viability ([14]; first compound 0.3162 µM) was 0.948 and the relative viability ([15]; first compound 0.01 µM) was 0.931. For the same molecule, the relative viability ([15]; first compound 0.03162 µM) was 1.01, the relative viability ([15]; first compound 0.3162 µM) was 0.816 and the relative viability ([16]; first compound 0.01 µM) was 1.52. The relative viability ([16]; first compound 0.03162 µM) was 1.26, the relative viability ([16]; first compound 0.3162 µM) was 1.01 and the relative viability ([17]; first compound 0.01 µM) was 1.04. The relative viability ([17]; first compound 0.03162 µM) was 1.02, the relative viability ([17]; first compound 0.3162 µM) was 1.12 and the relative viability ([18]; first compound 0.01 µM) was 1.02. For the same molecule, the relative viability ([18]; first compound 0.03162 µM) was 1.37, the relative viability ([18]; first compound 0.3162 µM) was 1.01 and the relative viability ([19]; first compound 0.01 µM) was 1.18. For the same molecule, the relative viability ([19]; first compound 0.03162 µM) was 1.07, the relative viability ([19]; first compound 0.3162 µM) was 1.13 and the relative viability ([20]; first compound 0.03162 µM) was 0.959. For the same molecule, the relative viability ([20]; first compound 0.3162 µM) was 1.22, the relative viability ([21]; first compound 0.01 µM) was 0.942 and the relative viability ([21]; first compound 0.03162 µM) was 1.02.
